Laboratory results published in ChEMBL document CHEMBL1131171, “Three-dimensional quantitative structure-activity relationship study of the cannabimimetic (aminoalkyl)indoles using comparative molecular field analysis” (J Med Chem, 1998).
pKi: −log10 of the molar value.

Target: Cannabinoid receptor 1 (Rattus norvegicus, UniProt P20272)
Test: Cannabinoid receptor 1 binding affinity by measuring its ability to displace [3H]WIN-55212-2 in rat forebrain membranes
Type: cell membranes, Membrane

Cannabinoid receptor 1, sequence (P20272 whole entry): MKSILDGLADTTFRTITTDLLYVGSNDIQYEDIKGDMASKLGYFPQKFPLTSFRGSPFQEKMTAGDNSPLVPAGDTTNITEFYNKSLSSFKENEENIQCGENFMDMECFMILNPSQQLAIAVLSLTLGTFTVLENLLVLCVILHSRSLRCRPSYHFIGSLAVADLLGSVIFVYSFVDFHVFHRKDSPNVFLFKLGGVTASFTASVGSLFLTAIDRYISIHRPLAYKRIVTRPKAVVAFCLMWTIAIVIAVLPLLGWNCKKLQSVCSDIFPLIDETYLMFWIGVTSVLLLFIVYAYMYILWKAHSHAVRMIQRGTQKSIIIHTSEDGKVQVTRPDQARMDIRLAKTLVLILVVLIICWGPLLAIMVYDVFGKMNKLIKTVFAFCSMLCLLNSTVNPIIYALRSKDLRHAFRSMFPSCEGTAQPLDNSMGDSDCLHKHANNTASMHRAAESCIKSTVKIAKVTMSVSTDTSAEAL

Compound: Cc1c(C(=O)c2cccc(Cl)c2)c2ccccc2n1CCN1CCOCC1
- pKi: 3.02

Compound: Cc1ccc(C(=O)c2c(C)n(CCN3CCOCC3)c3ccccc23)cc1
- pKi: 3.15

Compound: COc1ccc(C(=O)c2c(C)n(CCN3CCOCC3)c3c(C)cccc23)cc1
- pKi: 3.08

Compound: COc1ccc(C(=O)c2c(C)n(CCN3CCOCC3)c3cc(C)ccc23)cc1
- pKi: 3.17

Compound: COc1ccc(C(=O)c2c(C)n(CCN3CCOCC3)c3cc(OC)ccc23)cc1
- pKi: 3.06

Compound: O=C(c1c2ccccc2cc2ccccc12)c1cn(CCN2CCOCC2)c2ccccc12
- pKi: 3.37
